The record followed here is ChEMBL document CHEMBL5465560, “Selectivity Literature for EUbOPEN Chemogenomic Library” (2024).

The target of assay [1] is Tyrosine-protein kinase Fyn (Homo sapiens) (UniProt P06241). The assay can be described thus: Selectivity interaction (KinomeScan (DiscoverX)) EUB0000666a FYN. Particulars: at 10 µM.
Assay [2] addresses T1, Serine/threonine-protein kinase 36 (Homo sapiens) (UniProt Q9NRP7).
T1 sequence (whole entry): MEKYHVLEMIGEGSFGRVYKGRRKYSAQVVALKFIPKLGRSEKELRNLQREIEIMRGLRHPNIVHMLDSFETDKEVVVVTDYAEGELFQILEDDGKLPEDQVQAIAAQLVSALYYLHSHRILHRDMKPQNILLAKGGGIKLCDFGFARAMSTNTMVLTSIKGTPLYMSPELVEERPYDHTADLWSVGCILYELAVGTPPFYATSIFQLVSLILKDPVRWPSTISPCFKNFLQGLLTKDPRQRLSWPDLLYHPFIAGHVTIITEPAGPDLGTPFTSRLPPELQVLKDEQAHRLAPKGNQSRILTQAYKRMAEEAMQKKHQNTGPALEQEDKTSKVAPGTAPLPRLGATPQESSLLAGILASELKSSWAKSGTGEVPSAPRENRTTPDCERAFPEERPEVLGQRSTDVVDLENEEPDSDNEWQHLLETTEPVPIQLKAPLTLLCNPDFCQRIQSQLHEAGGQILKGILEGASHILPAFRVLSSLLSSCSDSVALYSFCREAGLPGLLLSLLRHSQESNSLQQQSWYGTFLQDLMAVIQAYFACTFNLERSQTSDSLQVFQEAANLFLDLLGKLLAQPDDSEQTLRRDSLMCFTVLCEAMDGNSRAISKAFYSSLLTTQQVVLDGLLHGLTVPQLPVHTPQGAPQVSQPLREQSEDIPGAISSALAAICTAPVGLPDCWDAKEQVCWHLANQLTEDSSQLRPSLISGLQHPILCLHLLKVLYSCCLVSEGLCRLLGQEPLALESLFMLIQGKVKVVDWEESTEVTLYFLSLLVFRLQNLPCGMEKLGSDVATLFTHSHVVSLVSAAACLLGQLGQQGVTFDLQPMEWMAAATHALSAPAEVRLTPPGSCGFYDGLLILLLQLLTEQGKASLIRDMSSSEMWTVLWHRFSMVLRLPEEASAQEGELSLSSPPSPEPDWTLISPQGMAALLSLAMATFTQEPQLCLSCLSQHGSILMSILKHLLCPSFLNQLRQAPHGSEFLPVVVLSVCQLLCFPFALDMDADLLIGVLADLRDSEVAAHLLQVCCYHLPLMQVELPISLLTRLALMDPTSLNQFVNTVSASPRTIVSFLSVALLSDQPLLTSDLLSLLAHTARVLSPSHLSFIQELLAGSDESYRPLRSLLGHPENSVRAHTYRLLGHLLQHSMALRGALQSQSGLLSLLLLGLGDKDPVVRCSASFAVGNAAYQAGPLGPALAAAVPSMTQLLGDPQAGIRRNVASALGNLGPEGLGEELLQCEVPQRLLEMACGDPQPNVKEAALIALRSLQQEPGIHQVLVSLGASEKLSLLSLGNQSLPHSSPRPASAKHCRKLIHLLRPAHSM
Particulars: at 10 µM.

Assay [3] has as its target T2, Serine/threonine-protein kinase Nek11 (Homo sapiens) (UniProt Q8NG66).
T2 sequence (whole entry): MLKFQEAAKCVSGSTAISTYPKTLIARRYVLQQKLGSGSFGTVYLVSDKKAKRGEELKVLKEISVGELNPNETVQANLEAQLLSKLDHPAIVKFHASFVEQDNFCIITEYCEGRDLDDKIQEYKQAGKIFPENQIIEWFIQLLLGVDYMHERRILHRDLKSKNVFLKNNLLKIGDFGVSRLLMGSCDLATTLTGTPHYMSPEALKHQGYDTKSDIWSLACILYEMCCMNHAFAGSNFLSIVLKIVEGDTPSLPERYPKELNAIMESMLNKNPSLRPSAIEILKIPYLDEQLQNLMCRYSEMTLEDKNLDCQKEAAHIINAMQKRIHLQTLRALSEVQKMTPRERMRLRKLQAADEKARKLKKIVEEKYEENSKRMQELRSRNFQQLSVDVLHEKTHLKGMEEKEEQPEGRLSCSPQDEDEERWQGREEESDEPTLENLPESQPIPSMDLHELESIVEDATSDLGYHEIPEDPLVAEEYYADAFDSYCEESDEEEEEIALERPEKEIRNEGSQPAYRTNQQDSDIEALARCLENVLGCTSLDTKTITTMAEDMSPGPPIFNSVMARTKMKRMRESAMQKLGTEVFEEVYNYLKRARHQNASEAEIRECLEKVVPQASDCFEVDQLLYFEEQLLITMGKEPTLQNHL
The assay can be described thus: Selectivity interaction (KinomeScan (DiscoverX)) EUB0000045b NEK11.

Assay [4] addresses Serine/threonine-protein kinase 38 (Homo sapiens) (UniProt Q15208). The assay can be described thus: Selectivity interaction (KinomeScan (DiscoverX)) EUB0000618a STK38. Particulars: at 10 µM.
In assay [5] the target is Histone acetyltransferase KAT2A (Homo sapiens) (UniProt Q92830). The assay can be described thus: Selectivity interaction (Human bromodomain panel (DSF assay)) EUB0000233b KAT2A. For orientation: Differential scanning fluorimetry follows unfolding on heating by fluorescence.

Where only a bound is given, the exact number is not on record here.

Sequence of Serine/threonine-protein kinase 38 (Homo sapiens) (Q15208 2-465 limits assumed): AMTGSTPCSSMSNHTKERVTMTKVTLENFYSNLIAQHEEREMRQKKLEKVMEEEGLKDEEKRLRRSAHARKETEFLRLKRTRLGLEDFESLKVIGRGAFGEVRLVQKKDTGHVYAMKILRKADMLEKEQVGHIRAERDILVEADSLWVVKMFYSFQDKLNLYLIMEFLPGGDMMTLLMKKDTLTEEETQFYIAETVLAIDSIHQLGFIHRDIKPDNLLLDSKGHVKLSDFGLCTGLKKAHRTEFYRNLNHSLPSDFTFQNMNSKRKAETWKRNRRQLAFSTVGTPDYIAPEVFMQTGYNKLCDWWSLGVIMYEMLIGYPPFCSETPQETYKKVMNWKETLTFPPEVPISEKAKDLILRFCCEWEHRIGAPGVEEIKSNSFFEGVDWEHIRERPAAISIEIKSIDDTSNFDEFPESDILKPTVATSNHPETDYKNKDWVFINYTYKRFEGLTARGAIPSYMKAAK
Sequence of Histone acetyltransferase KAT2A (Homo sapiens) (Q92830 2-837 limits assumed): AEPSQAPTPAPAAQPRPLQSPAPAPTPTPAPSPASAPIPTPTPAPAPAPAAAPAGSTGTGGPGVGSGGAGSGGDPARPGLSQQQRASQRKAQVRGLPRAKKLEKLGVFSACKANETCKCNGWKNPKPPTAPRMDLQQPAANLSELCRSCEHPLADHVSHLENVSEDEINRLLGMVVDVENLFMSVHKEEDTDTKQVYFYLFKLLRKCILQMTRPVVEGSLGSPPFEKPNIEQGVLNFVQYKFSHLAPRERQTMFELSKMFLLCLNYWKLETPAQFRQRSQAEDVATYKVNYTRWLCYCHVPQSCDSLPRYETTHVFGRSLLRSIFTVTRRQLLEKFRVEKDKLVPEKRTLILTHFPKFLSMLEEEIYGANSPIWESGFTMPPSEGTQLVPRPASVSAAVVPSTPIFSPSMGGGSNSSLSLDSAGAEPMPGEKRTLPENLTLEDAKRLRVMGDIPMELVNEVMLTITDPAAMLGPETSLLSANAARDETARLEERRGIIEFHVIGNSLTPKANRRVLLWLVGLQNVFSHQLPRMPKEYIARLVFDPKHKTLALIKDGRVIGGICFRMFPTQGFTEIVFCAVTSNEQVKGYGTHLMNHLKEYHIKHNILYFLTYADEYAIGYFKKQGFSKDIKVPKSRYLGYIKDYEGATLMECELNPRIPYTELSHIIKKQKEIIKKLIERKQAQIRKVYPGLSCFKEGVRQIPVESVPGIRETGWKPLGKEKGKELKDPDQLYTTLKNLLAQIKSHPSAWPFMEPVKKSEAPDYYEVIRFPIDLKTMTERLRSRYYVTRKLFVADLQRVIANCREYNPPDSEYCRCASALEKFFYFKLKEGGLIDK
Sequence of Tyrosine-protein kinase Fyn (Homo sapiens) (P06241 2-537 limits assumed): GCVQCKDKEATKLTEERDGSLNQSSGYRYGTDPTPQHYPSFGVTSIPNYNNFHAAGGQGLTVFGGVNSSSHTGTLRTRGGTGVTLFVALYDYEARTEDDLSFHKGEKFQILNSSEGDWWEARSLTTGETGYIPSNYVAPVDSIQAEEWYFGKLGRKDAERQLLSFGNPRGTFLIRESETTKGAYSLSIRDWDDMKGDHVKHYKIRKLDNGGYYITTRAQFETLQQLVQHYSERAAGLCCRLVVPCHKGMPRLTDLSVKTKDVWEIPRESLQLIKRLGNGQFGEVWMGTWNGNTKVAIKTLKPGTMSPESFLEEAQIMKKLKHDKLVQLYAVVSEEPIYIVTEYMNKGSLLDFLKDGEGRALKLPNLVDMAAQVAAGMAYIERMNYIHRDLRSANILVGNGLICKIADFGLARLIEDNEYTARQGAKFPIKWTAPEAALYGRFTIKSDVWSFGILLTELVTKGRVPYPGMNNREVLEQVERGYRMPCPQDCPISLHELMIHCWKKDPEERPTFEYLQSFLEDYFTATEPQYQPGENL

In assay [1], `O=C(NOC[C@H](O)CO)c1ccc(F)c(F)c1Nc1ccc(I)cc1F` showed a % of control of 64%.

`Cc1cc([C@@H](C)Nc2ccccc2C(=O)O)c2nc(N3CCOCC3)cc(=O)n2c1` [AZD-6482]: the % of control in assay [2] amounted to 100%.

With `C=CC(=O)Nc1cc(-n2c(=O)ccc3cnc4ccc(-c5ccc(NS(C)(=O)=O)cc5)cc4c32)ccc1C`, the % of control in assay [3] (at 1 µM) and in assay [3] (at 10 µM) was 100% throughout.

`O[C@H]1CC[C@H](Nc2ncc3nc(Nc4c(F)cc(F)cc4F)n([C@H]4CCOC4)c3n2)CC1` yielded a % of control in assay [4] of 100%.

With `CN(C)CCCOc1ccc(-c2cc(NCCCn3cccn3)nc(S(C)(=O)=O)n2)cc1`, in assay [5], the dTM was less than 2 K.
